Structures are written as SMILES. Like-named read-outs stand apart in the source and are kept apart here.

Series [1] deals with T1, bovine adrenocortical cytochrome P-45017α (Bos taurus, UniProt P05185).
T1 sequence (P05185 1-509): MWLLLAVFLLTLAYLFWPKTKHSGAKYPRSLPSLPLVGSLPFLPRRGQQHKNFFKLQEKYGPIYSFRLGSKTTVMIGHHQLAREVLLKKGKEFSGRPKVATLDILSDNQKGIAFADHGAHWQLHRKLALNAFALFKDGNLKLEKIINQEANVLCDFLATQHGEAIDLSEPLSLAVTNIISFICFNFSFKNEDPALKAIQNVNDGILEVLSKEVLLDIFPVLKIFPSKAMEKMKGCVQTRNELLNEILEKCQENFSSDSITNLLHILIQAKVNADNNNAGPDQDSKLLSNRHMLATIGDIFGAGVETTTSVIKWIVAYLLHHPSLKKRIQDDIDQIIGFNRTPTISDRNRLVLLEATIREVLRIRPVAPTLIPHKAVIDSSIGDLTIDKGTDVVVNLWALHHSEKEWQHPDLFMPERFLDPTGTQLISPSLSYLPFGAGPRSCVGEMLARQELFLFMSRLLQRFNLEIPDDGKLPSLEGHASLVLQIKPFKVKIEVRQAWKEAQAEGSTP
The series can be described thus: C17-20-lyase activity of P-45017α-producing yeasts against 17-hydroxyprogesterone. It counts as cell-based. Further details: made in house; host or cells: Saccharomyces cerevisiae AH22(pAα1), microsomal fraction.

The target of series [2] is T1, bovine adrenocortical cytochrome P-45017α. As to conditions: s. cerevisiae ah22(paα1) culture, 10 µM. The method, then:
S. cerevisiae AH22(pAα1) and AH22(pAAH5) were separately grown to each 7×10^6 cells/ml in an SD-synthetic-medium (2.0% glucose, 0.67% yeast nitrogen base without amino acids, and 20 μg/ml histidine). To 5.0 ml each of the medium was added 50 μl of 1 mM progesterone in ethanol solution containing 10 μCi of [^3 H]-progesterone (or 50 μl of 1 mM pregnenolone in ethanol solution containing 10 μCi of [3H]-pregnenolone) and the mixture was cultured while shaking. Each 1.0 ml of the medium was sampled at 0, 2, 5 and 23 hours and centrifugated. After 2.0 ml of dichloromethane was added to 0.8 ml of the supernatant, the mixture was vigorously agitated and centrifugated. The dichloromethane layer (1.0 ml) was evaporated to dryness and the residue was dissolved in 20 μl of ethanol/ethyl acetate (1:1 by volume). Ten μl of the solution was applied to TLC. The TLC was developed with chloroform containing 25% ethyl acetate at room temperature for 50 minutes and radioautographed. The silica gel of the spot on the film was scraped out from the plate and the radio activity of the gel was measured with a liquid scintillation counter.

The target is the same in series [3]. The note with it: microsomes, 5 min, pH 7.4. Here is the method:
After S. cerevisiae AH22(pAα1) was grown to a cell density of 2.0×10^7 cells/ml, the cells were harvested from 1.8 l of the culture broth and suspended in 50 ml of a buffer A (10 mM Tris-HCl (pH 7.5), 2M sorbitol, 0.1 mM DTT and 0.2 mM EDTA). After 20 mg of Zymolyase 100,000 was added to the suspension, the mixture was incubated at 30° C. for 1 hour. The resulting spheroplasts were harvested by centrifugation (5,000 x g for 10 minutes). They were suspended in 100 ml of buffer A and centrifuged. By repeating the centrifugation, the spheroplasts were washed. They were resuspended in 30 ml of a buffer solution (10 mM Tris-HCl (pH 7.5), 0.65M sorbitol and 0.1 mM DTT) and subjected to ultra sonication at 50W for 5 minutes. The mixture was centrifuged at 10,000 x g for 20 minutes, and the supernatant was again centrifuged at 125,000 x g for 70 minutes. The precipitates were suspended in 2.0 ml of 0.1M potassium phosphate buffer (pH 7.4).
A mixture of 3.6 ml of a 100 mM potassium phosphate buffer (pH 7.4) and 100 μl of a 20 mM NADPH aqueous solution was preincubated at 37° C. for 5 minutes. […] Each 1.0 ml of the mixture was sampled at 0, 2 and 10 minutes and centrifugated. After 2.0 ml each of dichloromethane was added, the sample mixtures were vigorously agitated and centrifugated. The dichloromethane layer (1.0 ml) was evaporated to dryness and the residue was treated in the same manner as in Example 6.

As to `CC(=O)[C@@]1(O)CC[C@H]2[C@@H]3CCC4=CC(=O)CC[C@]4(C)[C@H]3CC[C@@]21C` [17-hydroxyprogesterone], in series [1], the “C17-20-lyase activity against 17-hydroxyprogesterone” value is “almost no C17-20 -lyase activity”.

On to `CC(=O)[C@H]1CC[C@H]2[C@@H]3CC=C4C[C@@H](O)CC[C@]4(C)[C@H]3CC[C@]12C` [pregnenolone], for which, in series [2] (2 h), the “conversion of pregnenolone to 17-hydroxypregnenolone” value is recorded as 28%.

Consider `CC(=O)[C@H]1CC[C@H]2[C@@H]3CCC4=CC(=O)CC[C@]4(C)[C@H]3CC[C@]12C` [progesterone], for which the figures for the “conversion of progesterone to 17-hydroxyprogesterone” value in series [2] (5 h) and in series [2] (23 h) were 87% and 97%, respectively. Moreover, the “added progesterone converted to 17-hydroxyprogesterone” value in series [3] (2 µM) amounted to 88%; in series [3] (10 µM), 49%; in series [3] (50 µM), 17%.

For the origin of these results see patent publication US5137822A, “Transformed yeasts having steroid-hydroxylase activity and process for hydroxylation of steroids using the said transformed yeasts” (Director-General of Agency of Industrial Science & …, priority 1987, dated 1992).
